According to patent EP0166986A1, “Disubstituted 3,7-diaryl-1,5,3,7-dioxadiazocines, and process for their preparation” (Deutsches Krebsforschungszentrum Stiftung des öffentlichen …, priority 1984, dated 1986):

Assays:
[1] = system: S. Typhimurium Stämmen; experiment: Mutagenicity test (Ames test), summary statements not tied to one strain; type: cell-based; conditions: for Mutagenität: S. Typhimurium strains, overall result in words
Method: (§1) • a) Mutagenitätsprüfungen Die Versuchsverbindung, gelöst in 40 µl an Dimethylsulphoxid und 100 µl eines Übernacht-Kulturmediums wurde zu 500 µl eines S9-Gemisches gegeben das 100 µl Leber S9 von mit Aroclor behandelten männlichen BD VI Ratten, 50 µl 0,15 M KC1 - 5 mM Sørensen Puffer pH 7,4 , […] Sørensen Phosphat Puffer (pH 7,4), […] NADP^+, 2,5 µmol Glukose-6-phosphat und […] MgC12 enthält. Das Gemisch wurde bei 37°C 30 Minuten lang unter Schütteln vorinkubiert und dann mit 2 ml histidinarmem Weichagar für die Plattenbildung auf minimalem Glukoseagar kombiniert. Die Anzahl der Revertanten wurde nach 48-stündiger Inkubation bei 37°C gezählt.
(§2) Mutagenität von synthetischen zyklischen Dioxadiazocinen in S. Typhimurium Stämmen. • a) Die meisten Zahlen entsprechen Mittelwerten aus zwei Versuchsreihen, die je dreifach gemacht wurden. Die Anzahl der spontanen Revertanten pro Platte (in Gegenwart des Lösungsmittels) wurde abgezogen. • b) AS: die Versuche wurden in Gegenwart (+) oder in Abwesenheit (-) eines metabolischen Aktivierungssystems aus S9 Rattenleber durchgeführt. • c) Die Konzentration bei welcher die untersuchten Verbindungen in S9-Mischung ausfielen.

[2] = system: TA100; experiment: Mutagenicity test (Ames test), preincubation with or without rat liver S9; type: cell-based, S. Typhimurium
Method: as §1, §2

[3] = system: TA98; experiment: as above; type: cell-based, S. Typhimurium
Method: as §1, §2

[4] = TA100, +AS (rat liver S9), 30 µg pro Platte, spontaneous revertants subtracted
[5] = TA100, +AS (rat liver S9), 100 µg pro Platte, spontaneous revertants subtracted (pp'-CH3O CO precipitated in S9 mix)
[6] = TA100, +AS (rat liver S9), 300 µg pro Platte, compounds precipitated in S9 mix, spontaneous revertants subtracted
[7] = TA100, -AS, 30 µg pro Platte, spontaneous revertants subtracted
[8] = TA100, -AS, 100 µg pro Platte, spontaneous revertants subtracted
[9] = TA100, -AS, 300 µg pro Platte, spontaneous revertants subtracted
[10] = TA98, +AS (rat liver S9), 30 µg pro Platte, spontaneous revertants subtracted
[11] = TA98, +AS (rat liver S9), 100 µg pro Platte, spontaneous revertants subtracted (pp'-CH3O CO precipitated in S9 mix)
[12] = TA98, +AS (rat liver S9), 300 µg pro Platte, compounds precipitated in S9 mix, spontaneous revertants subtracted
[13] = TA98, -AS, 30 µg pro Platte, spontaneous revertants subtracted
[14] = TA98, -AS, 100 µg pro Platte, spontaneous revertants subtracted
[15] = TA98, -AS, 300 µg pro Platte, spontaneous revertants subtracted

FC(F)(F)c1ccc(N2COCN(c3ccc(C(F)(F)F)cc3)COC2)cc1 [pp'-CF3, para-Trifluormethyl-3,7-diphenyl-1,5,3,7-dioxadiazocin]
Mutagenität [1]: mutagen | Anzahl der Revertanten pro Platte [2, 4]: 44 Revertanten pro Platte | Anzahl der Revertanten pro Platte [2, 5]: 86 Revertanten pro Platte | Anzahl der Revertanten pro Platte [2, 6]: 98 Revertanten pro Platte | Anzahl der Revertanten pro Platte ([2]; TA100, +AS (rat liver S9), 1000 µg pro Platte, compound precipitated in S9 mix, spontaneous revertants subtracted): 96 Revertanten pro Platte | Anzahl der Revertanten pro Platte [2, 7]: 8 Revertanten pro Platte | Anzahl der Revertanten pro Platte [2, 8]: 14 Revertanten pro Platte | Anzahl der Revertanten pro Platte [2, 9]: 5 Revertanten pro Platte | Anzahl der Revertanten pro Platte ([2]; TA100, -AS, 1000 µg pro Platte, spontaneous revertants subtracted): 1 Revertanten pro Platte | Mutagenität ([2]; TA100, in presence of metabolic activation system, result in words): schwach mutagen | Anzahl der Revertanten pro Platte [3, 10]: 10 Revertanten pro Platte | Anzahl der Revertanten pro Platte [3, 11]: 14 Revertanten pro Platte | Anzahl der Revertanten pro Platte [3, 12]: 24 Revertanten pro Platte | Anzahl der Revertanten pro Platte ([3]; TA98, +AS (rat liver S9), 1000 µg pro Platte, compound precipitated in S9 mix, spontaneous revertants subtracted): 12 Revertanten pro Platte | Anzahl der Revertanten pro Platte [3, 13]: 0 Revertanten pro Platte | Anzahl der Revertanten pro Platte [3, 14]: 0 Revertanten pro Platte | Anzahl der Revertanten pro Platte [3, 15]: 2 Revertanten pro Platte | Anzahl der Revertanten pro Platte ([3]; TA98, -AS, 1000 µg pro Platte, spontaneous revertants subtracted): 0 Revertanten pro Platte

O=[N+]([O-])c1ccc(N2COCN(c3ccc([N+](=O)[O-])cc3)COC2)cc1 [pp'-NO2]
Mutagenität [1]: mutagen | direkte Mutagenität ([1]; without metabolic activation, result in words): direkt mutagen | Anzahl der Revertanten pro Platte ([2]; TA100, +AS (rat liver S9), 10 µg pro Platte, spontaneous revertants subtracted): 22 Revertanten pro Platte | Anzahl der Revertanten pro Platte [2, 4]: 78 Revertanten pro Platte | Anzahl der Revertanten pro Platte [2, 5]: 195 Revertanten pro Platte | Anzahl der Revertanten pro Platte [2, 6]: 357 Revertanten pro Platte | Anzahl der Revertanten pro Platte ([2]; TA100, -AS, 10 µg pro Platte, spontaneous revertants subtracted): 13 Revertanten pro Platte | Anzahl der Revertanten pro Platte [2, 7]: 31 Revertanten pro Platte | Anzahl der Revertanten pro Platte [2, 8]: 100 Revertanten pro Platte | Anzahl der Revertanten pro Platte [2, 9]: 206 Revertanten pro Platte | Mutagenität (Vergleich der Verbindungen) ([2]; TA100, rank among the three tested compounds): aktivste Verbindung | Mutagenität der reaktiven metabolischen Spezies ([2]; with metabolic activation, TA100 compared with TA98): nur in TA100 mutagen oder stärker mutagen | Anzahl der Revertanten pro Platte ([3]; TA98, +AS (rat liver S9), 10 µg pro Platte, spontaneous revertants subtracted): 37 Revertanten pro Platte | Anzahl der Revertanten pro Platte [3, 10]: 88 Revertanten pro Platte | Anzahl der Revertanten pro Platte [3, 11]: 280 Revertanten pro Platte | Anzahl der Revertanten pro Platte [3, 12]: 507 Revertanten pro Platte | Anzahl der Revertanten pro Platte ([3]; TA98, -AS, 10 µg pro Platte, spontaneous revertants subtracted): 65 Revertanten pro Platte | Anzahl der Revertanten pro Platte [3, 13]: 163 Revertanten pro Platte | Anzahl der Revertanten pro Platte [3, 14]: 373 Revertanten pro Platte | Anzahl der Revertanten pro Platte [3, 15]: 839 Revertanten pro Platte | Mutagenität (Vergleich der Verbindungen) ([3]; TA98, rank among the three tested compounds): aktivste Verbindung | direkte Mutagenität ([3]; without metabolic activation, TA98 compared with TA100): höher in TA98
